This is an account of results in ChEMBL document CHEMBL5108027, “An unanticipated discovery of novel naphthalimidopropanediols as potential broad-spectrum antibacterial members” (Eur J Med Chem, 2022).

Holding throughout (type): functional
Assay [1] concerns Staphylococcus aureus. The experiment in a line: Antibacterial activity against Staphylococcus aureus ATCC 29213 measured by Muller-Hinton broth based microdilution assay.
The subject of assay [2] is Pseudomonas aeruginosa. Kind of assay: Antibacterial activity against Pseudomonas aeruginosa measured by Muller-Hinton broth based microdilution assay.
The subject of assay [3] is Staphylococcus aureus. Kind of assay: Antibacterial activity against Staphylococcus aureus measured by Muller-Hinton broth based microdilution assay.
The subject of assay [4] is Pseudomonas aeruginosa. Kind of assay: Antibacterial activity against Pseudomonas aeruginosa ATCC 27853 measured by Muller-Hinton broth based microdilution assay. Background: In broth dilution the organism is exposed to a series of concentrations in liquid medium.
The subject of assay [5] is Staphylococcus aureus. Kind of assay: Antibacterial activity against Staphylococcus aureus ATCC 25923 measured by Muller-Hinton broth based microdilution assay.
In assay [6] the test system is Escherichia coli. The experiment in a line: Antibacterial activity against Escherichia coli ATCC 25922 measured by Muller-Hinton broth based microdilution assay.
In assay [7] the test system is Acinetobacter baumannii. The experiment in a line: Antibacterial activity against Acinetobacter baumannii measured by Muller-Hinton broth based microdilution assay.
For assay [8], the system named is Klebsiella pneumoniae. The experiment in a line: Antibacterial activity against Klebsiella pneumoniae measured by Muller-Hinton broth based microdilution assay.
For assay [9], the system named is Enterococcus faecalis. The experiment in a line: Antibacterial activity against Enterococcus faecalis measured by Muller-Hinton broth based microdilution assay.
Assay [10] deals with Staphylococcus aureus. Kind of assay: Antibacterial activity against methicillin-resistant Staphylococcus aureus N315 measured by Muller-Hinton broth based microdilution assay.
The test system of assay [11] is Escherichia coli. Kind of assay: Antibacterial activity against Escherichia coli measured by Muller-Hinton broth based microdilution assay.

Each structure is given as a SMILES string. Values after ≈ are worked out from the molar mass of the structure shown.

On to `O=C1c2cccc3c(N/N=C/c4nccs4)ccc(c23)C(=O)N1C(CO)CO`, for which the MIC (as a rule, the lowest concentration that inhibits growth of the organism) worked out at 32 µg/mL (≈ 80.7 µM) in [1]; 32 µg/mL (≈ 80.7 µM) in assay [2]; 64 µg/mL (≈ 161 µM) in [3]; 16 µg/mL (≈ 40.4 µM) in [4]; 16 µg/mL (≈ 40.4 µM) in [5]; 32 µg/mL (≈ 80.7 µM) in [6]. In addition, the MIC amounted to 32 µg/mL (≈ 80.7 µM) in [7]; 64 µg/mL (≈ 161 µM) in assay [8]; 32 µg/mL (≈ 80.7 µM) in [9]; 32 µg/mL (≈ 80.7 µM) in [10]; 32 µg/mL (≈ 80.7 µM) in [11].
As to `O=C1c2cccc3c(N/N=C/c4ccc(Cl)cc4)ccc(c23)C(=O)N1C(CO)CO`, the MIC in [1] was found to be 128 µg/mL (≈ 302 µM); in assay [2] it was 32 µg/mL (≈ 75.5 µM); in assay [3], 32 µg/mL (≈ 75.5 µM); in assay [4], 32 µg/mL (≈ 75.5 µM); in assay [5], 64 µg/mL (≈ 151 µM); in [6], 64 µg/mL (≈ 151 µM). Further, the MIC in assay [7] was determined as 128 µg/mL (≈ 302 µM); in assay [8], 16 µg/mL (≈ 37.7 µM); in assay [9], 32 µg/mL (≈ 75.5 µM); in assay [10], 16 µg/mL (≈ 37.7 µM); in assay [11], 64 µg/mL (≈ 151 µM).
Turning to `O=C1c2cccc3c(N/N=C/c4csc5ccccc45)ccc(c23)C(=O)N1C(CO)CO`, the MIC amounted to 128 µg/mL (≈ 287 µM) in assay [1]; 64 µg/mL (≈ 144 µM) in assay [2]; 64 µg/mL (≈ 144 µM) in assay [3]; 64 µg/mL (≈ 144 µM) in [4]; 64 µg/mL (≈ 144 µM) in assay [5]; 64 µg/mL (≈ 144 µM) in assay [6]. Further, the MIC turned out to be 64 µg/mL (≈ 144 µM) in assay [7]; 32 µg/mL (≈ 71.8 µM) in assay [8]; 64 µg/mL (≈ 144 µM) in assay [9]; 64 µg/mL (≈ 144 µM) in assay [10]; 32 µg/mL (≈ 71.8 µM) in [11].
Turning to `C#CCn1cc(/C=N/Nc2ccc3c4c(cccc24)C(=O)N(C(CO)CO)C3=O)c2ccccc21`, the MIC is 1 µg/mL (≈ 2.14 µM) in assay [1]; 32 µg/mL (≈ 68.6 µM) in [2]; 0.5 µg/mL (≈ 1.07 µM) in assay [3]; 4 µg/mL (≈ 8.57 µM) in [4]; 8 µg/mL (≈ 17.1 µM) in [5]; 16 µg/mL (≈ 34.3 µM) in assay [6]. The MIC worked out at 16 µg/mL (≈ 34.3 µM) in assay [7]; 4 µg/mL (≈ 8.57 µM) in [8]; 16 µg/mL (≈ 34.3 µM) in [9]; 8 µg/mL (≈ 17.1 µM) in assay [10]; 64 µg/mL (≈ 137 µM) in assay [11].
With `O=C1c2cccc3c(N/N=C/c4ccc([N+](=O)[O-])cc4)ccc(c23)C(=O)N1C(CO)CO`, the MIC was 64 µg/mL (≈ 147 µM) in [1]; 16 µg/mL (≈ 36.8 µM) in assay [2]; 2 µg/mL (≈ 4.6 µM) in [3]; 16 µg/mL (≈ 36.8 µM) in assay [4]; 2 µg/mL (≈ 4.6 µM) in assay [5]; 32 µg/mL (≈ 73.7 µM) in assay [6]. In addition, the minimum inhibitory concentration (MIC) was 64 µg/mL (≈ 147 µM) in assay [7]; 32 µg/mL (≈ 73.7 µM) in assay [8]; 1 µg/mL (≈ 2.3 µM) in [9]; 64 µg/mL (≈ 147 µM) in [10]; 32 µg/mL (≈ 73.7 µM) in assay [11].
Take `O=C1c2cccc3c(N/N=C/c4c[nH]c5ccccc45)ccc(c23)C(=O)N1C(CO)CO`: the MIC was found to be 2 µg/mL (≈ 4.67 µM) in [1]; 4 µg/mL (≈ 9.34 µM) in [2]; 8 µg/mL (≈ 18.7 µM) in [3]; 32 µg/mL (≈ 74.7 µM) in assay [4]; 8 µg/mL (≈ 18.7 µM) in assay [5]; 64 µg/mL (≈ 149 µM) in assay [6]. Besides, the MIC in assay [7] worked out at 64 µg/mL (≈ 149 µM); in [8] it was 64 µg/mL (≈ 149 µM); in [9], 64 µg/mL (≈ 149 µM); in assay [10], 4 µg/mL (≈ 9.34 µM); in [11], 64 µg/mL (≈ 149 µM).
In assay [9], `CN[C@H](CC(C)C)C(=O)N[C@H]1C(=O)N[C@@H](CC(N)=O)C(=O)N[C@H]2C(=O)N[C@H]3C(=O)N[C@H](C(=O)N[C@H](C(=O)O)c4cc(O)cc(O)c4-c4cc3ccc4O)[C@H](O)c3ccc(c(Cl)c3)Oc3cc2cc(c3O[C@@H]2O[C@H](CO)[C@@H](O)[C@H](O)[C@H]2O[C@H]2C[C@](C)(N)[C@H](O)[C@H](C)O2)Oc2ccc(cc2Cl)[C@H]1O` [VANCOMYCIN] returned an MIC of 1 µg/mL (≈ 0.69 µM).
Consider `O=C(O)c1cn(C2CC2)c2cc(N3CCNCC3)c(F)cc2c1=O` [CIPROFLOXACIN], for which the MIC in [1] came out at 8 µg/mL (≈ 24.1 µM); in assay [3], 2 µg/mL (≈ 6.04 µM); in assay [5], 0.5 µg/mL (≈ 1.51 µM); in assay [7], 2 µg/mL (≈ 6.04 µM); in assay [8], 2 µg/mL (≈ 6.04 µM); in assay [9] it was 2 µg/mL (≈ 6.04 µM). Also, it took 4 µg/mL (≈ 12.1 µM) to inhibit growth in assay [10] (MIC).
